In US8865741B2, “Aminoindane compounds and use thereof in treating pain” (Asana Biosciences, LLC, priority 2011, dated 2014):

Assays:
[1] = test system: Male Sprague Dawley (SD) rats; test: In vivo assay of mechanical nociception (rat pinch model, perisciatic injection); conditions: perisciatic
[2] = test system: sodium channel in hTRPV1-N1E115 cells; test: FLIPR membrane potential assay of sodium channel response in hTRPV1-N1E115 cells, with (47° C.) or without (25° C.) heat activation of hTRPV1; type: cell-based
Summary of the method: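 hTRPV1-N1E115 cells were loaded with membrane potential blue dye, and compound was added. Duplicate plates were either heated to 47 °C for 10 min then held 30 min at ~25 °C, or kept 40 min at room temperature. Activity was attenuation of the FLIPR Tetra signal induced by 100 μM veratridine (final).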

[3] = test system: rats; test: Sciatic function assay (foot print score, motor function); type: in vivo, rat; conditions: 200 μL of 0.2% with 2% lidocaine
Description: The sciatic function test is a simple observational gait analysis that provides a rudimentary assessment of hind-limb motor function according to a predetermined scoring scale based on a visual inspection of the animals foot prints as it ambulates on a flat surface (the basic principles of this test are provided in Lowdon (Journal of Neuroscience Methods 24(3), 1988, 279-281)). Following the injection of a test substance(s), the animal's hind paws are inked and it is then placed on a flat paper surface and permitted to ambulate freely. The footprint pattern left by the inked footpads on the paper is inspected and assigned a ‘foot print score’ based on a subjective assessment. […] A footprint score of 1-3 reflected that the weight bearing was primarily on the knees, that the ankle and toes were used sparingly, the toes were curled, and or the plantar surface of the paw is uplifted in a concave fashion. A footprint score of 4-6 reflects that the weight bearing is primarily on the knees and angle, with very little weight bearing on the toes. A footprint score of 6-10 reflects that the weight bearing is distributed over the knee, ankle, and toes and that there is an occasional sparing of the knee joints.

[4] = test system: rats; test: Cutaneous anesthetic activity, cutaneous trunci muscle reflex (CTMR) pin-prick model; type: in vivo, rat
Procedure: Rats were subjected to several days of acclimatization to the environment and the investigator prior to entering the study. About 24 hours before each experiment, the skin on the back of male rats was shaved using electronic clippers. The anesthetic action of test agents, following subcutaneous injection was determined using a “pin-prick” method as described by Khan (Khan et al., Anesthesiology, January 2002, 96(1): 109-116). Injection volumes were standardized at 100 μL, each injection caused a small wheal to develop—the boundary of which was marked with ink. The cutaneous trunci muscle reflex (CTMR) is a reflex movement of the skin due to twitches of the lateral thoracospinal muscles elicited by noxious stimulation of the dorsal cutaneous area. An 18-guage needle was used as the noxious stimulus; six stimuli were presented to an area of ‘normal’ skin to determine baseline sensitivity and this was then repeated in the area of the wheal. […] Data were represented as % maximal possible effect (MPE) where 100% indicates complete lack of response to each of the six needle presentations in the injected area. The extent of local anesthesia was assessed at regular intervals in order to generate efficacy-duration time plots.

[5] = test system: sodium current in DRG neurons; conditions: co-applied with 1 μM capsaicin; whole-cell voltage clamp; read-out: in vitro apparent affinity (IC50) for blocking sodium current in DRG neurons; cited from earlier work

In the case of `Cc1ccccc1N(CC[C@H]1CCCC[N+]1(C)C)C1Cc2ccccc2C1.[Br-]` [Example 43, (R)-2-[2-(Indan-2-yl-o-tolyl-amino)-ethyl]-1,1-dimethyl-piperidinium bromide], the “Average Time of Analgesia” value ([1]; test compound 0.2%, lidocaine 2%, total injection 200 μL) is reported as 28 h, the “hTRPV1-N1E Nav 0.1 mM (% inhibition) 25° C.” value ([2]; 0.1 mM, 25° C. (no heat activation of hTRPV1)) is reported as 93.9% and the IC50 ([2]; 47° C., class symbols, read-out: hTRPV1-N1E IC50 (μM) 47° C.) is reported as 1 to 10 µM. The “duration of marked motor deficit post injection” value ([3]; unilateral peri-sciatic injection) was 2 h, the “time of gradual return of foot print score to normal” value ([3]; remaining hours of assessment after the first 6 hours) was about 20 h and the “duration of analgesia, combination with lidocaine compared to compound alone” value ([4]; 100 μL sub-cutaneous injection, 0.2%, with lidocaine 2% vs alone) was “extended duration of analgesia”.

In the case of `CC[N+](CC)(CC)CC(=O)Nc1c(C)cccc1C` [QX-314, reference compound], the IC50 [5] is given as 30 µM, the “Average Time of Analgesia” value ([1]; test compound 0.5%, lidocaine 0%, total injection 100 μL) is given as 2 h and the “Average Time of Analgesia” value ([1]; test compound 0.5%, lidocaine 0%, total injection 200 μL) is given as 2 h. The “Average Time of Analgesia” value ([1]; test compound 0.5%, lidocaine 2%, total injection 100 μL) was 6 h and the “Average Time of Analgesia” value ([1]; test compound 0.5%, lidocaine 2%, total injection 200 μL) was 9 h.

With `CCN(CC)CC(=O)Nc1c(C)cccc1C` [lidocaine] the “time of return of analgesia to baseline” value ([4]; 100 μL lidocaine (2%) alone, sub-cutaneous) was “around 2 hours” and the “analgesia (% maximal possible effect) reached” value ([4]; 100 μL lidocaine (2%) alone, sub-cutaneous, for around 0.5 hours post injection) was 100%.
